Measurements reported in US20240148821A1, “PHARMACEUTICAL USE OF CYCLIC PEPTIDE COMPOUND” (CHUGAI SEIYAKU KABUSHIKI KAISHA, priority 2021, published 2024).
Numbered stars: 1 amine (or outer) side, 2 acyl side, 3 side chain; on linkers, the order of the positions; unused ones are H or OH. Bridge positions count the residues as written; N and C are the ends. Square brackets hold non-standard residues; d marks the D form. Peptide text beside a SMILES is read from it. * marks the point of attachment. hPhe(3-Cl-4-CF3) = N[C@@H](CCc1ccc(C(F)(F)F)c(Cl)c1)C(=O)O; NEtPhe(4-CF3) = CCN[C@@H](Cc1ccc(C(F)(F)F)cc1)C(=O)O; NMePhe(4-CF3) = CN[C@@H](Cc1ccc(C(F)(F)F)cc1)C(=O)O; hPhe(4-CF3) = N[C@@H](CCc1ccc(C(F)(F)F)cc1)C(=O)O; NMePhe(4-Cl) = CN[C@@H](Cc1ccc(Cl)cc1)C(=O)O; NMeNle(6-CHF2) = CN[C@@H](CCCCC(F)F)C(=O)O; hPhe(3-Cl) = N[C@@H](CCc1cccc(Cl)c1)C(=O)O; NMedβ3hAla = C[C@H](CC(=O)[*:2])N(C)[*:1]; NMeGly(cPent) = CN[C@H](C(=O)O)C1CCCC1; Pro(4,4-F2) = O=C(O)[C@@H]1CC(F)(F)CN1; NMeGly(cBu) = CN[C@H](C(=O)O)C1CCC1; NMeCha = CN[C@@H](CC1CCCCC1)C(=O)O; NMeGly(cPr) = CN[C@H](C(=O)O)C1CC1; Hyp = O=C(O)[C@@H]1C[C@@H](O)CN1; NMeAhp(2) = CCCCC[C@H](NC)C(=O)O; NMeChg = CN[C@H](C(=O)O)C1CCCCC1; NMeI = CC[C@H](C)[C@H](NC)C(=O)O; d(β3hL) = CC(C)C[C@@H](N)CC(=O)O; Gly(cBu) = N[C@H](C(=O)O)C1CCC1; NMeD = CN[C@@H](CC(=O)O)C(=O)O; NMeL = CN[C@@H](CC(C)C)C(=O)O; NMeV = CN[C@H](C(=O)O)C(C)C; d(β3hA) = C[C@@H](N)CC(=O)O; Azetidin(1-yl) = C1CN(*)C1; NMeA = CN[C@@H](C)C(=O)O; Piperidide = C1CCN(*)CC1; Ac5c = NC1(C(=O)O)CCCC1; Aze = O=C(O)[C@@H]1CCN1; Ac4c = NC1(C(=O)O)CCC1; Aib = CC(C)(N)C(=O)O; Sar = CNCC(=O)O

Each compound was assayed against protein-protein interaction between Kras and SOS1 (biotin-tagged human Kras loaded with GDP, His-tagged human SOS1) (Homo sapiens (Human), UniProt P01116, G12D) (assay: Protein-protein interaction inhibition between Kras and SOS1 (KrasG12D-SOS PPI) using AlphaScreen). Conditions: AlphaScreen; biotin-tagged human Kras loaded with GDP, His-tagged human SOS1; read-out: KRAS G12D-SOS PPI IC50.
Assay type: biochemical
`CC[C@H](C)[C@@H]1NC(=O)[C@H](CCCCC(F)F)N(C)C(=O)C[C@@H](C(=O)N2CCCCC2)N(C)C(=O)[C@H](C(C)C)N(C)C(=O)C2(CCCC2)NC(=O)[C@@H]2CCCN2C(=O)[C@H](CCc2ccc(C(F)(F)F)c(Cl)c2)NC(=O)CN(C)C(=O)[C@H](CC2CCCCC2)N(C)C(=O)[C@@H]2CCN2C(=O)[C@H](C)N(C)C1=O` [Compound 94] ([NMeNle(6-CHF2)]I[NMeA][Aze][NMeCha][Sar][hPhe(3-Cl-4-CF3)]P[Ac5c][NMeV][NMeD]-Piperidide; lactam N-11) showed an IC50 of 3.3 nM. In the case of `CCO[C@@H]1C[C@H]2C(=O)NC3(CCC3)C(=O)N(C)[C@@H]([C@@H](C)CC)C(=O)N(C)[C@H](C)CC(=O)N(C)[C@@H](CC(C)C)C(=O)N[C@@H]([C@@H](C)CC)C(=O)N(C)[C@@H](C)C(=O)N3CC[C@H]3C(=O)N(C)[C@@H](Cc3ccc(C(F)(F)F)cc3)C(=O)N(C)CC(=O)N[C@@H](CCc3ccc(C(F)(F)F)c(Cl)c3)C(=O)N2C1` [Compound 99] (cyclo([Ac4c][NMeI][NMedβ3hAla][NMeL]I[NMeA][Aze][NMePhe(4-CF3)][Sar][hPhe(3-Cl-4-CF3)][Hyp](Et))), the IC50 is reported as 2.9 nM. `CC[C@H](C)[C@@H]1NC(=O)[C@H](C2CC2)N(C)C(=O)C[C@@H](C(=O)N2CCCCC2)N(C)C(=O)[C@H](C(C)C)N(C)C(=O)C2(CCCC2)NC(=O)[C@@H]2CCCN2C(=O)[C@H](CCc2ccc(C(F)(F)F)c(Cl)c2)NC(=O)CN(C)C(=O)[C@H](CC2CCCCC2)N(C)C(=O)[C@@H]2CCN2C(=O)[C@H](C)N(C)C1=O` [Compound 100] ([NMeGly(cPr)]I[NMeA][Aze][NMeCha][Sar][hPhe(3-Cl-4-CF3)]P[Ac5c][NMeV][NMeD]-Piperidide; lactam N-11) gave an IC50 of 7.4 nM. Compound `CC[C@H](C)[C@@H]1NC(=O)[C@H](C(C)C)N(C)C(=O)C[C@@H](CC(C)C)NC(=O)[C@H](CC(C)C)N(C)C(=O)C2(CCCC2)NC(=O)[C@H](CC(C)C)N(C)C(=O)[C@H](CCc2ccc(C(F)(F)F)cc2)NC(=O)CN(C)C(=O)[C@H](Cc2ccc(Cl)cc2)N(C)C(=O)CN(C)C(=O)CN(C)C1=O` [Compound 113] (cyclo([Ac5c][NMeL][d(β3hL)][NMeV]I[Sar][Sar][NMePhe(4-Cl)][Sar][hPhe(4-CF3)][NMeL])) has an IC50 of 280 nM. `CC[C@H](C)[C@@H]1NC(=O)[C@H](CC(C)C)N(C)C(=O)C[C@@H](C(=O)N2CCCCC2)N(C)C(=O)[C@H](C2CCCC2)N(C)C(=O)C2(CCCC2)NC(=O)[C@@H]2CCCN2C(=O)[C@H](CCc2ccc(C(F)(F)F)c(Cl)c2)NC(=O)CN(C)C(=O)[C@H](C2CCC2)N(C)C(=O)[C@@H]2CCN2C(=O)[C@H](C)N(C)C1=O` [Compound 127] ([NMeL]I[NMeA][Aze][NMeGly(cBu)][Sar][hPhe(3-Cl-4-CF3)]P[Ac5c][NMeGly(cPent)][NMeD]-Piperidide; lactam N-11) showed an IC50 of 0.43 nM. With `CC[C@H](C)[C@@H]1NC(=O)[C@H](CC(C)C)N(C)C(=O)C[C@@H](C)N(C)C(=O)[C@H](C2CCCCC2)N(C)C(=O)C2(CCC2)NC(=O)[C@@H]2CC(F)(F)CN2C(=O)[C@H](CCc2ccc(C(F)(F)F)c(Cl)c2)NC(=O)CN(C)C(=O)[C@H](Cc2ccc(C(F)(F)F)cc2)N(CC)C(=O)[C@@H]2CCN2C(=O)[C@H](C)NC1=O` [Compound 138] (cyclo(A[Aze][NEtPhe(4-CF3)][Sar][hPhe(3-Cl-4-CF3)][Pro(4,4-F2)][Ac4c][NMeChg][NMedβ3hAla][NMeL]I)) the IC50 was 44 nM. Work on `CC[C@H](C)[C@@H]1NC(=O)[C@H](C)N(C)C(=O)C[C@@H](C)NC(=O)[C@H](CC(C)C)N(C)C(=O)C(C)(C)NC(=O)[C@H](CC(C)C)N(C)C(=O)[C@H](CCc2cccc(Cl)c2)NC(=O)CN(C)C(=O)[C@H](Cc2ccc(Cl)cc2)N(C)C(=O)CN(C)C(=O)CN(C)C1=O` [Compound 153] (cyclo([Aib][NMeL][d(β3hA)][NMeA]I[Sar][Sar][NMePhe(4-Cl)][Sar][hPhe(3-Cl)][NMeL])) yielded an IC50 of 60 nM. `CCCCC[C@H]1C(=O)N[C@@H]([C@@H](C)CC)C(=O)N[C@@H](C)C(=O)N2CC[C@H]2C(=O)N(C)[C@@H](CC2CCCCC2)C(=O)N(C)CC(=O)N[C@@H](CCc2ccc(C(F)(F)F)c(Cl)c2)C(=O)N2CCC[C@H]2C(=O)NC2(CCCC2)C(=O)N(C)[C@@H](C2CCCC2)C(=O)N(C)[C@H](C(=O)N2CCC2)CC(=O)N1C` [Compound 155] ([NMeAhp(2)]IA[Aze][NMeCha][Sar][hPhe(3-Cl-4-CF3)]P[Ac5c][NMeGly(cPent)][NMeD]-{Azetidin(1-yl)}; lactam N-11) gave an IC50 of 1.6 nM. `CC(C)C[C@H]1C(=O)N[C@@H](C2CCC2)C(=O)N(C)[C@@H](C)C(=O)N2CC[C@H]2C(=O)N(C)[C@@H](CC2CCCCC2)C(=O)N(C)CC(=O)N[C@@H](CCc2ccc(C(F)(F)F)c(Cl)c2)C(=O)N2CCC[C@H]2C(=O)NC2(CCCC2)C(=O)N(C)[C@@H](C(C)C)C(=O)N(C)[C@H](C(=O)N2CCCCC2)CC(=O)N1C` [Compound 157] ([NMeL][Gly(cBu)][NMeA][Aze][NMeCha][Sar][hPhe(3-Cl-4-CF3)]P[Ac5c][NMeV][NMeD]-Piperidide; lactam N-11) showed an IC50 of 7.5 nM.
